Test results published in patent US3931407A, “Method of treatment with and compositions containing condensed pyrroles bearing an N-phenyl substituent” (American Hoechst Corporation, priority 1974, dated 1976).
Read-outs that look alike come from different tables or passages of the source.

How the values were obtained:
in vivo = settings: rat, po
Description: A common but undesirable side effect of anti-inflammatory agents is the production of gastric irritation in mammals. […] Groups of male or female rats (Wistar, Long Evans or Charles River), 150-180 gm, are utilized for this assay using 10 animals per dose group. The animals are starved for 48 hours (H2 O ad lib) prior to administration of drug orally at 10 ml/kg. Drugs are prepared using distilled water solutions or, if insoluble, 1 drop of a dispersing agent, e.g. "Tween 80"/10 ml, is used with homogenization. The control group receives the vehicle only (10 ml/kg). […] Stomachs are removed and examined for gastric irritation, which is defined as ulceration and/or hemorrhage of gastric mucosa. The presence of a single ulcer or hemorrhage spot is taken as positive and stomachs must be "clean" to be negative. A dose response is run at the peak time using at least four dose levels of test drug. In the table, gastric irritability is expressed as ID50, the dose (mg/kg) of compound producing irritation in 50 percent of the animals after seven hours.

[1] = system: edema induced by carrageenin in rat paws; test: Carrageenin paw edema in rats; assay type: in vivo; settings: read-out: Carrageenin paw edema-rats ED50
[2] = system: writhing induced in mice by 2-phenyl-1,4-benzoquinone; test: Phenylquinone (2-phenyl-1,4-benzoquinone) writhing in mice, analgesic activity; assay type: in vivo; settings: Mus musculus, read-out: Phenylquinone writhing-mice ED50
From the text: Exp. Biol. Med., 95, 729 (1957)]. The activity of several representative compounds of the present invention and of aspirin and phenylbutazone is expressed as ED50, the dose (mg/kg) of compound producing a 50% reduction in the number of writhes as compared to non-treated 2-phenyl-1,4-benzoquinone dosed controls.

[3] = system: adjuvant-induced arthritis in rats; test: Adjuvant-induced arthritis in rats; assay type: in vivo; settings: Rattus norvegicus, 504 h; for inhibition in vivo at 50 mg/kg: 50 mg/kg/day; for inhibition in vivo at 50 mg/kg / inhibition in vivo at 100 mg/kg / inhibition in vivo at 10 mg/kg / inhibition in vivo at 25 mg/kg: rats, day 21; for inhibition in vivo at 100 mg/kg: 100 mg/kg/day; for inhibition in vivo at 10 mg/kg: 10 mg/kg/day; for inhibition in vivo at 25 mg/kg: 25 mg/kg/day
[4] = system: yeast-induced pyrexia in rats; test: Antipyretic assay, yeast-induced pyrexia in rats; assay type: in vivo, female Charles River or Wistar rats; settings: Rattus norvegicus; dose producing ≥ 1° reduction in rectal temperature in 50 percent of fevered rats; oral; 2 hours past drug
Description: A common property of useful anti-inflammatory agents is their ability to lower elevated body temperatures. […] Groups of ten female Charles River or Wistar rats (120-150 gm) are injected with a 20% water suspension of "Brewers Yeast" subcutaneously into the nape of the neck (10 ml/kg). The animals are starved (water ad lib.) and 18 hours later rectal temperatures are monitored (Tele-Thermometer, Yellow Springs Instrument Co., Inc., Yellow Springs, Ohio). Animals with a temperature ≥ 37.2°C. are considered fevered. Drugs are administered orally (10 ml/kg) using distilled water and, if insoluble, one drop of a dispersing agent, e.g. "Tween 80," per 10 ml. Temperatures are recorded 2 hours past drug. Significant activity is a reduction in rectal temperature ≥ 1° from the mean control temperature. The activity of the compounds tested is expressed as ED50, the dose (mg/kg) of a compound producing a reduction of ≥ 1° in rectal temperature of fevered rats from the mean fevered control temperature in 50 percent of the animals.

[5] = dose producing 50% reduction in edema vs non-treated controls, rats
[6] = dose producing 50% reduction in number of writhes vs non-treated controls, mice
[7] = read-out: % Inhibition of Edema on Day 21, Adjuvant Injected Paw
[8] = read-out: % Inhibition of Edema on Day 21, Non-Injected Paw

`O=C(O)c1cc(-n2c(-c3ccccc3)cc3c2CCCC3)ccc1O` [1-(3-Carboxy-4-hydroxyphenyl)-2-phenyl-4,5,6,7-tetrahydroindole] gave a TD50 at 7 h (in vivo) of 130 mg/kg, an ED50 [1, 5] of 87 mg/kg and an ED50 [2, 6] of 17 mg/kg. The inhibition in vivo at 50 mg/kg [3, 7] was 38%, the inhibition in vivo at 50 mg/kg [3, 8] was 72% and the inhibition in vivo at 100 mg/kg [3, 7] was 65%. For the same compound, the inhibition in vivo at 100 mg/kg [3, 8] was 80% and the ED50 [4] was 41 mg/kg.

In the case of `O=C(O)c1cc(-n2c(-c3ccccc3)cc3c2CCc2ccccc2-3)ccc1O` [3-(3-Carboxy-4-hydroxyphenyl)-4,5-dihydro-2-phenylbenz[e]indole], the TD50 at 7 h (in vivo) is reported as 300 to 350 mg/kg, the ED50 [1, 5] is reported as 63 mg/kg and the ED50 [2, 6] is reported as 10 mg/kg. For the same compound, the inhibition in vivo at 10 mg/kg [3, 7] was 27%, the inhibition in vivo at 10 mg/kg [3, 8] was 29% and the inhibition in vivo at 25 mg/kg [3, 7] was 49%. It also gave an inhibition in vivo at 25 mg/kg [3, 8] of 72%, an inhibition in vivo at 50 mg/kg [3, 7] of 69% and an inhibition in vivo at 50 mg/kg [3, 8] of 81%. It also gave an ED50 [4] of 69 mg/kg.

In the case of `O=C(O)c1cc(-n2c(-c3ccccc3)cc3c4ccccc4ccc32)ccc1O` [3-(3-Carboxy-4-hydroxyphenyl)-2-phenylbenz[e]indole], the TD50 at 7 h (in vivo) is reported as > 200 mg/kg, the ED50 [1, 5] is reported as 90 mg/kg and the ED50 [2, 6] is reported as 16.5 mg/kg. The inhibition in vivo at 25 mg/kg [3, 7] was 45%, the inhibition in vivo at 25 mg/kg [3, 8] was 50% and the inhibition in vivo at 50 mg/kg [3, 7] was 70%. For the same compound, the inhibition in vivo at 50 mg/kg [3, 8] was 70% and the ED50 [4] was > 100 mg/kg.

Work on `O=C(O)c1cc(-n2c(-c3ccccc3)cc3c2CCC3)ccc1O` [1-(3-Carboxy-4-hydroxyphenyl)-2-phenyl-1,4,5,6-tetrahydrocyclopenta[b]pyrrole] yielded a TD50 at 7 h (in vivo) of 125 mg/kg, an ED50 [1, 5] of 110 mg/kg and an ED50 [2, 6] of 10 mg/kg. The inhibition in vivo at 100 mg/kg [3, 7] was 57%, the inhibition in vivo at 100 mg/kg [3, 8] was 75% and the ED50 [4] was < 50 mg/kg.

In the case of `CC(=O)Oc1ccc(-n2c(-c3ccccc3)cc3c2CCc2ccccc2-3)cc1C(=O)O` [3-(4-Acetoxy-3-carboxyphenyl)-4,5-dihydro-2-phenylbenz[e]indole], the TD50 at 7 h (in vivo) is reported as > 300 mg/kg, the ED50 [1, 5] is reported as 70 mg/kg and the ED50 [2, 6] is reported as 16.5 mg/kg. It also gave an inhibition in vivo at 50 mg/kg [3, 7] of 56%, an inhibition in vivo at 50 mg/kg [3, 8] of 68% and an inhibition in vivo at 100 mg/kg [3, 7] of 82%. It also gave an inhibition in vivo at 100 mg/kg [3, 8] of 93%.

`O=C(O)c1cc(-n2c(-c3ccccc3)cc3c2CCCC3)ccc1S` [1-(3-Carboxy-4-mercaptophenyl)-2-phenyl-4,5,6,7-tetrahydroindole] showed an ED50 [1, 5] of 140 mg/kg, an inhibition in vivo at 10 mg/kg [3, 7] of 23% and an inhibition in vivo at 10 mg/kg [3, 8] of 23%. It also gave an inhibition in vivo at 25 mg/kg [3, 7] of 43%, an inhibition in vivo at 25 mg/kg [3, 8] of 57% and an inhibition in vivo at 50 mg/kg [3, 7] of 67%. For the same compound, the inhibition in vivo at 50 mg/kg [3, 8] was 80%.

For `O=C(O)c1cc(-n2c(-c3ccccc3)cc3c2CCCCC3)ccc1O` [1-(3-Carboxy-4-hydroxyphenyl)-1,4,5,6,7,8-hexahydro-2-phenylcyclohepta[b]pyrrole], the TD50 at 7 h (in vivo) was > 200 mg/kg, the ED50 [1, 5] was 125 mg/kg and the ED50 [2, 6] was 10 mg/kg. The inhibition in vivo at 100 mg/kg [3, 7] was 75%, the inhibition in vivo at 100 mg/kg [3, 8] was 90% and the ED50 [4] was 100 mg/kg.

Work on `CC(=O)Oc1ccccc1C(=O)O` [Aspirin, reference compound] yielded a TD50 at 7 h (in vivo; in vivo) of 42 mg/kg, an ED50 [1] of 130 to 140 mg/kg and an ED50 [2] of 53 mg/kg. The inhibition in vivo at 200 mg/kg [3, 7] was 37%, the inhibition in vivo at 200 mg/kg [3, 8] was 47% and the ED50 [4] was 35 mg/kg.

With `CCCCC1C(=O)N(c2ccccc2)N(c2ccccc2)C1=O` [Phenylbutazone, reference compound] the TD50 at 7 h (in vivo) was 75 mg/kg, the ED50 [1, 5] was 83 mg/kg and the ED50 [2, 6] was 89 mg/kg. The inhibition in vivo at 50 mg/kg [3, 7] was 60%, the inhibition in vivo at 50 mg/kg [3, 8] was 71% and the ED50 [4] was < 50 mg/kg.

For `O=C(O)c1cc(-n2c(-c3ccc(F)cc3)cc3c2CCCC3)ccc1O` [1-(3-Carboxy-4-hydroxyphenyl)-2-(4-fluorophenyl)-4,5,6,7-tetrahydroindole], the ED50 [1, 5] was 88 mg/kg, the inhibition in vivo at 100 mg/kg [3, 7] was 56% and the inhibition in vivo at 100 mg/kg [3, 8] was 64%.
